For assay [1], the target named is T1, Polyunsaturated fatty acid 5-lipoxygenase (Homo sapiens) (UniProt P09917).
T1 sequence (whole entry): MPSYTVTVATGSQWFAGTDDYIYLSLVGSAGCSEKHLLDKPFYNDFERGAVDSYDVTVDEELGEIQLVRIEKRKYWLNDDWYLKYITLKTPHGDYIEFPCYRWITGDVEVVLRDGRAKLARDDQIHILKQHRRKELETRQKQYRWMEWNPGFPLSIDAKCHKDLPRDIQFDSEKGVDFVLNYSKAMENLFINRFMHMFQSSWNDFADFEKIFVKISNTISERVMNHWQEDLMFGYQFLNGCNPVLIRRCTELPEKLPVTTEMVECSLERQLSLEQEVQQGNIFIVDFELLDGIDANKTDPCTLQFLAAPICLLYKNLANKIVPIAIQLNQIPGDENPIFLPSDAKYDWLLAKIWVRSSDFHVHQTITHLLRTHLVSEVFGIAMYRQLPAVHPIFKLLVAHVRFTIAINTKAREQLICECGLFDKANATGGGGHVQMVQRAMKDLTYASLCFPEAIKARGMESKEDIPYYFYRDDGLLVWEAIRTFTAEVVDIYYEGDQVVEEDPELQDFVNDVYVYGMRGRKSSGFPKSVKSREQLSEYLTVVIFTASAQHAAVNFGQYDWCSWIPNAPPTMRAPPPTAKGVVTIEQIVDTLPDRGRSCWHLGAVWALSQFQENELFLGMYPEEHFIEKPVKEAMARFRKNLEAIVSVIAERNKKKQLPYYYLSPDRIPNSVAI
Kind of assay: Tested for the inhibition of 5-lipoxygenase from human polymorphonuclear leukocytes(PMN) at 10 uM concentration of the compound; IA= Inactive.

Assay [2] addresses T1, Polyunsaturated fatty acid 5-lipoxygenase (Homo sapiens). Kind of assay: Tested for the inhibition of 5-lipoxygenase from human polymorphonuclear leukocytes(PMN) at 10 uM concentration of the compound; value ranges from 70-90.

Calls of active or inactive are those of the source. No cut-off for these calls is given here.

For orientation: inhibition means the relative decrease from the control value, in per cent.

For `CCCCCCCCCCC/C=C\C=C\c1cc(C/C=N/O)no1`, the inhibition entry in assay [1] is “inactive”.
In assay [2], `CCCCC/C=C\C/C=C\C/C=C\C=C\c1cc(CC(=O)OC)no1` returned an inhibition of 70%.
In the case of `CCCCC/C=C\C/C=C\C/C=C\C=C\C1CC(CC(=O)OC)=NO1` (stereo not given), the inhibition entry in assay [1] is “inactive”.
Molecule `CCCCCCCCCCC/C=C\C=C\C1CC(CC(=O)OC)=NO1` (stereo not given) yielded an inhibition in assay [2] of 70%.
For the molecule `CCCCCCCCCCC/C=C\C=C\c1cc(CC(=O)OC)no1`, the inhibition in assay [2] was 70%.

(Values after ChEMBL document CHEMBL1149956, “Synthesis and biological evaluation of new 5-HPETE analogs” (Bioorg Med Chem Lett, 1994).)
